Source: PMC9696085, “Fully Symmetric Cyclodextrin Polycarboxylates: How to Determine Reliable Protonation Constants from NMR Titration Data” (International Journal of Molecular Sciences, 2022)
Like-named read-outs stand apart in the source and are kept apart here.

What was measured:
[1] = 1H NMR-pH titration, protonation constants; type: physicochemical
Description: The pH meter readings were recorded using a Metrohm pH meter, equipped with a Metrohm 6.0234.110 combined glass electrode. A four-point calibration using pH 2.00, pH 4.00, pH 7.00 and pH 11.00 standard buffer solutions were performed directly before pH adjustments. The pH measurements were performed in 25 mL vessels with proper stirring before transferring 600 μL sample solutions into the NMR tubes. Solutions were prepared in the pH range of 1.50–8.70 with 0.30 increments using 0.9 M, 0.5 M and 0.1 M sodium hydroxide and hydrochloric acid solutions in H2O:D2O = 9:1.
For structural characterizations of CD derivatives in D2O, a 600 MHz Varian DDR NMR spectrometer equipped with a 5 mm inverse-detection gradient probe or a 400 MHz Varian Mercury Plus spectrometer equipped with a 5mm Varian 400 Automation Triple Resonance Broadband Pulsed Field Gradient probe was used. For NMR-pH titrations, the same instruments were used. The pH-dependent series of ^1H NMR spectra were recorded in a solvent mixture of H2O:D2O = 9:1 by volume, where the constant ionic strength and the buffer capacity were adjusted using 0.05 M sodium chloride and 0.05 M acetic acid-d4. An appropriate amount of CD was weighed to obtain a 1 mM solution and finally one drop of methanol was added as a chemical shift reference (3.310 ppm). The water resonance was diminished by the dpfgse pulse sequence or presaturation. All the spectra were processed using the MestReNova v9.0.1-13254 (Mestralab Research, S.L., Santiago de Compostela, Spain) software.
The standard macroscopic evaluation of NMR-pH titration curves (Equation (3) in Section 2.2) was performed with the following software tools: Microcal Origin Pro 8 (OriginLab Corp., Northampton, MA, USA), HypNMR2018 [38], OPIUM [39] and home-written R scripts (R version 4.1.2, The R Foundation, Vienna, Austria) using the nls module. The equidistant macroscopic (Equation (8)) and Q-fitting (Equations (4) and (11)) models were fitted both by Origin and our R-scripts to verify their equivalent performance regarding statistical description of the parameter estimates. The microscopic cluster expansion model in Section 2.5 requires summation of >100 variables which is unfeasible in the form of an explicit model function required by commercial data-fitting software like Origin. The enumeration of microspecies was therefore accomplished in a custom-written R script. To assess the robustness of our data-fitting model as well as the error propagation of the optimized log k and pε parameters to the derived log K macroconstants, Monte Carlo simulations on >1000 replicates were performed in R.

[2] = cited from earlier work
[3] = design: method as in doi:10.1021/jp0340820; settings: cited from earlier work
[4] = ED macro, Eq. (7) evaluation, calculated (*)
[5] = Macroscopic, Eq. (2) evaluation
[6] = Macroscopic, Eq. (2) evaluation, calculated (*)
[7] = Microscopic, Eq. (3) evaluation, calculated (*)
[8] = Literature, ref Hawkins, Perrin, Inorg. Chem. 2 (1963) 843

Row | log K1 ([1]; ED macro, Eq. (7) evaluation) | log K2 ([1]; ED macro, Eq. (7) evaluation) | log kA [1, 4] | pεAB [1, 4] | log K1 [1, 5] | log K2 [1, 5] | log kA [1, 6] | pεAB [1, 6] | log K1 [1, 7] | log K2 [1, 7] | Molecule | log K1 [2, 8] | log K2 [2, 8] | log kA [2, 8] | pεAB [2, 8] | pε ([2]; earlier literature, almost independent carboxylate protonations) | log kA ([2]; literature value) | pε (carboxylate interactions) [3]
1 | 4.631 (0.005) | 3.883 (0.005) | 4.330 (0.005) | 0.15 (0.01) | 4.62 (0.06) | 3.87 (0.07) | 4.32 (0.06) | 0.15 (0.01) | 4.630 (0.005) | 3.88 (0.01) | O=C(O)CCSSCCC(=O)O [DTDPA, 3,3′-dithiodipropionic acid, reference compound] | 4.47 | 3.88 | 4.16 | -0.01 | ≈ 0 | 4.16 | 
2 |  |  |  |  |  |  |  |  |  |  | oxidized glutathione |  |  |  |  |  |  | ≈ 0.1
